Experimental data as given in ChEMBL document CHEMBL1127307, “Structural evolution and pharmacology of a novel series of triacid angiotensin II receptor antagonists” (J Med Chem, 1994).
The source made the active and inactive calls. The rule behind the calls is not given here.

Experiments:
[1] = target: T1, Type-1 angiotensin II receptor (Oryctolagus cuniculus) (UniProt P34976); assay: In vitro antagonistic activity against Ang II (AT1) receptor was determined in rabbit aorta; assay type: functional, tissue-based
T1 sequence (whole entry): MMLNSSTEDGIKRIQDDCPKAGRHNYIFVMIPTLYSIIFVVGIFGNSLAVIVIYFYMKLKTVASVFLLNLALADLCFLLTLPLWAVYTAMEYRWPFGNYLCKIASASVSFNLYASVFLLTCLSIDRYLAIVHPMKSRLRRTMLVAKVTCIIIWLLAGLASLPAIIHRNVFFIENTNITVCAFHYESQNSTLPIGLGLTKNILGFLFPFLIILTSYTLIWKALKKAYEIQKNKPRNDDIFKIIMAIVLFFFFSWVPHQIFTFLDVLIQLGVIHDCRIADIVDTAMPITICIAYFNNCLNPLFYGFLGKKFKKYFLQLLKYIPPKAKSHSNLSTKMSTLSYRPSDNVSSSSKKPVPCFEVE

[2] = target: T2, Type-1 angiotensin II receptor B (Rattus norvegicus) (UniProt P29089); assay: In vivo pressor response to Ang II (AT1) receptor in pithed rats at an oral dose of 10 mg/kg; assay type: functional, organism-based; design: dose 10 mg/kg
T2 sequence (whole entry): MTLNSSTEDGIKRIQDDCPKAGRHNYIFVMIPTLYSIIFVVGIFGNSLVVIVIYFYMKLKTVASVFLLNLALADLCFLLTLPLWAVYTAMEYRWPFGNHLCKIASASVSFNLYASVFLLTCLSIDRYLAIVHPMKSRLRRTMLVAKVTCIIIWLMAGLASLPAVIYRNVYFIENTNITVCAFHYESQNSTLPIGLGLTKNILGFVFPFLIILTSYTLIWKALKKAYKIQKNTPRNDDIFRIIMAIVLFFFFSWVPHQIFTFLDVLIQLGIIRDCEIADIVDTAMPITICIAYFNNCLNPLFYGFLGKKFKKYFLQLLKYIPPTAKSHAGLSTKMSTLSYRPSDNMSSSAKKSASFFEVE

[3] = target: T2, Type-1 angiotensin II receptor B (Rattus norvegicus); assay: In vivo pressor response to Ang II (AT1) receptor in pithed rats at an oral dose of 10 mg/kg; Not active; assay type: functional, organism-based; design: dose 10 mg/kg

SMILES	Kb [1] [nM]	Kb [2] [mg/kg]	Kb [3]
CCCCCCC(C(=O)O)n1cnc(NC(=O)c2ccccc2-c2nn[nH]n2)c1 (centres undefined)	159		
CCCCCC[C@H](C(=O)N1C[C@@H](Oc2ccc(CCP(=O)(O)O)cc2)C[C@H]1C(=O)O)n1cnc(NC(=O)c2ccccc2S(=O)(=O)O)c1	0.4	8.3	
CCCCCC[C@H](C(=O)N1C[C@@H](Oc2ccc(C(C)(C)C)cc2)C[C@H]1C(=O)O)n1cnc(NC(=O)c2ccccc2S(=O)(=O)O)c1	126		
CCCCCC[C@H](C(=O)N1C[C@@H](Oc2ccc3c(c2)OCO3)C[C@H]1C(=O)O)n1cnc(NC(=O)c2ccccc2S(=O)(=O)O)c1	0.92		
CCCCCC[C@H](C(=O)N1C[C@@H](Oc2ccc(C)cc2)C[C@H]1C(=O)O)n1cnc(NC(=O)c2ccccc2S(=O)(=O)O)c1	1.09		
CCCCCC[C@H](C(=O)N1C[C@@H](Oc2ccc(OC(C)C)cc2)C[C@H]1C(=O)O)n1cnc(NC(=O)c2ccccc2S(=O)(=O)O)c1	4.1		
CCCCCC[C@H](C(=O)N1C[C@@H](O)C[C@H]1C(=O)O)n1cnc(NC(=O)c2ccccc2S(=O)(=O)O)c1	25.8		
CCCCCC[C@H](C(=O)N1C[C@@H](Oc2ccccc2OC)C[C@H]1C(=O)O)n1cnc(NC(=O)c2ccccc2S(=O)(=O)O)c1	> 30		
CCCCCC[C@H](C(=O)N1C[C@@H](Oc2cccnc2)C[C@H]1C(=O)O)n1cnc(NC(=O)c2ccccc2S(=O)(=O)O)c1	148		
CCCCCC[C@H](C(=O)N1C[C@@H](Oc2cccc3cnccc23)C[C@H]1C(=O)O)n1cnc(NC(=O)c2ccccc2S(=O)(=O)O)c1	3.3		
CCCCCC[C@H](C(=O)N1C[C@@H](Oc2ccc3occc3c2)C[C@H]1C(=O)O)n1cnc(NC(=O)c2ccccc2S(=O)(=O)O)c1	0.63		
CCCCCC[C@H](C(=O)N1C[C@@H](Oc2ccccc2)C[C@H]1C(=O)O)n1cnc(NC(=O)c2ccccc2S(=O)(=O)O)c1	0.8		
CCCCCC[C@@H](C(=O)N1CCC[C@H]1C(=O)O)n1cnc(NC(=O)c2ccccc2S(=O)(=O)O)c1	461		
CCCCCCC(C(=O)O)n1cnc(NC(=O)c2ccccc2C(=O)O)c1 (centres undefined)	684		
CCCCCC[C@H](C(=O)N1C[C@@H](Oc2ccc3ccccc3c2)C[C@H]1C(=O)O)n1cnc(NC(=O)c2ccccc2S(=O)(=O)O)c1	4.1		
CCCCCC[C@H](C(=O)N1C[C@@H](Oc2ccc(CC3N=NN=N3)cc2)C[C@H]1C(=O)O)n1cnc(NC(=O)c2ccccc2S(=O)(=O)O)c1	0.6		inactive
CCCCCC[C@H](C(=O)N1C[C@@H](Oc2ccc(CC(=O)O)cc2)C[C@H]1C(=O)O)n1cnc(NC(=O)c2ccccc2S(=O)(=O)O)c1	0.27	2.8	
CCCCCC[C@H](C(=O)N1C[C@@H](Oc2cccc(CC(=O)O)c2)C[C@H]1C(=O)O)n1cnc(NC(=O)c2ccccc2S(=O)(=O)O)c1	15.8	10.6	
CCCCCC[C@H](C(=O)N1C[C@@H](Oc2ccc(C(F)(F)F)cc2)C[C@H]1C(=O)O)n1cnc(NC(=O)c2ccccc2S(=O)(=O)O)c1	34.7		
CCCCCC[C@H](C(=O)N1C[C@@H](Oc2ccno2)C[C@H]1C(=O)O)n1cnc(NC(=O)c2ccccc2S(=O)(=O)O)c1	94.6		

SMILES	Kb [1] [nM]	Kb [2] [mg/kg]	Kb [3]
CCCCCC[C@H](C(=O)N1C[C@@H](Oc2ccc3sccc3c2)C[C@H]1C(=O)O)n1cnc(NC(=O)c2ccccc2S(=O)(=O)O)c1	3.6		
CCCCCC[C@H](C(=O)N1C[C@@H](Oc2ccc(C(=O)O)cc2)C[C@H]1C(=O)O)n1cnc(NC(=O)c2ccccc2S(=O)(=O)O)c1	1.1		inactive
CCCCC(C(=O)O)n1cnc(C(=O)Nc2ccccc2)c1 (centres undefined)	71.5		
CCCCCCC(C(=O)O)n1cnc(NC(=O)c2cccc(O)c2C(=O)O)c1 (centres undefined)	124		
CCCCCC[C@H](C(=O)N1C[C@@H](Oc2ccc(OC)c(OC)c2)C[C@H]1C(=O)O)n1cnc(NC(=O)c2ccccc2S(=O)(=O)O)c1	15.8		
CCCCCC[C@H](C(=O)N1CCC[C@H]1C(=O)O)n1cnc(NC(=O)c2ccccc2S(=O)(=O)O)c1	50.9		
CCCCCC[C@H](C(=O)N1C[C@@H](Oc2ccc(F)cc2)C[C@H]1C(=O)O)n1cnc(NC(=O)c2ccccc2S(=O)(=O)O)c1	3		
CCCCCC[C@H](C(=O)N1C[C@@H](Oc2ccc(C(C)C)cc2)C[C@H]1C(=O)O)n1cnc(NC(=O)c2ccccc2S(=O)(=O)O)c1	25.1		
CCCCCC[C@H](C(=O)N1C[C@@H](Oc2ccc(C(C)(C)C(=O)O)cc2)C[C@H]1C(=O)O)n1cnc(NC(=O)c2ccccc2S(=O)(=O)O)c1	0.6	6.5	
CCCCCCC(C(=O)O)n1cnc(NC(=O)c2ccccc2)c1 (centres undefined)	12500		
CCCCCC[C@H](C(=O)N1C[C@@H](Oc2ccc(-c3ccccc3)cc2)C[C@H]1C(=O)O)n1cnc(NC(=O)c2ccccc2S(=O)(=O)O)c1	10		
CCCCCC[C@H](C(=O)N1C[C@@H](Oc2ccc(CP(=O)(O)O)cc2)C[C@H]1C(=O)O)n1cnc(NC(=O)c2ccccc2S(=O)(=O)O)c1	0.9	1.8	
CCCCCC[C@H](C(=O)N1C[C@@H](Oc2ccc(CCC(=O)O)cc2)C[C@H]1C(=O)O)n1cnc(NC(=O)c2ccccc2S(=O)(=O)O)c1	0.6		inactive
CCCCCC[C@H](C(=O)N1C[C@@H](Oc2cccc3ccccc23)C[C@H]1C(=O)O)n1cnc(NC(=O)c2ccccc2S(=O)(=O)O)c1	4040		
CCCCCC[C@@H](C(=O)N1C[C@@H](Oc2ccccc2)C[C@H]1C(=O)O)n1cnc(NC(=O)c2ccccc2S(=O)(=O)O)c1	3.2		
CCCCCCC(C(=O)O)n1cnc(NC(=O)c2ccccc2S(=O)(=O)O)c1 (centres undefined)	81.7		
CCCCCC[C@H](C(=O)N1C[C@@H](Oc2ccc(OC)cc2)C[C@H]1C(=O)O)n1cnc(NC(=O)c2ccccc2S(=O)(=O)O)c1	0.44		
CCCCCC[C@H](C(=O)N1C[C@@H](Oc2ccccc2CC(=O)O)C[C@H]1C(=O)O)n1cnc(NC(=O)c2ccccc2S(=O)(=O)O)c1	501		inactive
CCCCCC[C@H](C(=O)N1C[C@@H](Oc2ccc(OC(C)(C)C)cc2)C[C@H]1C(=O)O)n1cnc(NC(=O)c2ccccc2S(=O)(=O)O)c1	5.2		
CCCCCC[C@H](C(=O)N1C[C@@H](Oc2cccc(OC)c2)C[C@H]1C(=O)O)n1cnc(NC(=O)c2ccccc2S(=O)(=O)O)c1	11.6		
